Reference: ChEMBL document CHEMBL1212865, “New porphyrin amino acid conjugates: synthesis and photodynamic effect in human epithelial cells” (Bioorg Med Chem, 2010)
Activity calls are given as the source filed them. The rule behind the calls is not given here.

Assays:
HaCaT [1] = assay: Induction of apoptosis in human HaCaT cells assessed as change in cellular morphology after irradiation with 9.15 mW/cm'2 light; format: functional, cell-based
HeLa [2] = assay: Phototoxicity against human HeLa cells assessed as surviving fraction at 1.2 uM under LED array light; format: functional
HeLa [3] = assay: Phototoxicity against human HeLa cells assessed as surviving fraction at 12 uM under LED array light by MTT assay; format: functional
HaCaT [4] = assay: Phototoxicity against human HaCaT cells assessed as surviving fraction at 12 uM under LED array light; format: functional
HeLa [5] = assay: Phototoxicity against human HeLa cells assessed as surviving fraction at 0.25 uM irradiated with 9.15 mW/cm'2 light for 5 mins by MTT assay; format: functional
[6] = Photostability of the compound irradiated with 9.15 mW/cm'2 white light; format: physicochemical
HaCaT [7] = assay: Phototoxicity against human HaCaT cells assessed as surviving fraction at 2.4 uM under LED array light; format: functional
HaCaT [8] = assay: Phototoxicity against human HaCaT cells assessed as surviving fraction at 1.2 uM under LED array light; format: functional
HeLa [9] = assay: Phototoxicity against human HeLa cells assessed as surviving fraction at 0.25 uM irradiated with 9.15 mW/cm'2 light for 10 mins by MTT assay; format: functional
HeLa [10] = assay: Phototoxicity against human HeLa cells assessed as surviving fraction at 2.4 uM under LED array light; format: functional
HeLa [11] = assay: Phototoxicity against human HeLa cells assessed as surviving fraction at 0.25 uM irradiated with 9.15 mW/cm'2 light for 20 mins by MTT assay; format: functional
HaCaT [12] = assay: Phototoxicity against human HaCaT cells assessed as surviving fraction at 0.61 uM under LED array light by MTT assay; format: functional
HeLa [13] = assay: Phototoxicity against human HeLa cells assessed as survival at 0.25 uM irradiated with 9.15 mW/cm'2 light for 10 mins by MTT assay
HaCaT [14] = assay: Phototoxicity against human HaCaT cells assessed as surviving fraction at 0.25 uM irradiated with 9.15 mW/cm'2 light for 10 mins by MTT assay; format: functional
HeLa [15] = assay: Phototoxicity against human HeLa cells assessed as surviving fraction at 0.61 uM under LED array light; format: functional
HaCaT [16] = assay: Phototoxicity against human HaCaT cells assessed as surviving fraction at 0.25 uM irradiated with 9.15 mW/cm'2 light for 5 mins by MTT assay; format: functional
HeLa [17] = assay: Phototoxicity against human HeLa cells assessed as surviving fraction at 0.22 uM under LED array light; format: functional
HaCaT [18] = assay: Induction of apoptosis in human HaCaT cells assessed as intracellular localization at 0.25 uM with 9.15 mW/cm'2 light for; format: functional, cell-based; settings: TDE = time-dependent effect
HaCaT [19] = assay: Phototoxicity against human HaCaT cells assessed as surviving fraction at 0.25 uM irradiated with 9.15 mW/cm'2 light for 20 mins by MTT assay; format: functional
HaCaT [20] = assay: Phototoxicity against human HaCaT cells assessed as surviving fraction at 0.22 uM under LED array light by MTT assay; format: functional
HeLa [21] = assay: Phototoxicity against human HeLa cells assessed as surviving fraction at 0.3 uM irradiated with 9.15 mW/cm'2 light for 15 mins by MTT assay; format: functional
HaCaT [22] = assay: Induction of apoptosis in human HaCaT cells assessed as change in loss of basophilia after irradiation with 9.15 mW/cm'2 light for 10 mins; format: functional, cell-based
HaCaT [23] = assay: Induction of apoptosis in human HaCaT cells assessed as change in cytoplasmic vacuolization after irradiation with 9.15 mW/cm'2 light for 10 mins; format: functional, cell-based
HeLa [24] = assay: Phototoxicity against human HeLa cells assessed as surviving fraction at 0.3 uM irradiated with 9.15 mW/cm'2 light for 5 mins by MTT assay; format: functional
HeLa [25] = assay: Induction of apoptosis in human HeLa cells assessed as intracellular localization at 0.25 uM with 9.15 mW/cm'2 light for; format: functional, cell-based; settings: TDE = time-dependent effect
HeLa [26] = assay: Phototoxicity against human HeLa cells assessed as surviving fraction at 0.3 uM irradiated with 9.15 mW/cm'2 light for 10 mins by MTT assay; format: functional
HeLa [27] = assay: Phototoxicity against human HeLa cells assessed as survival at 0.3 uM irradiated with 9.15 mW/cm'2 light for 10 mins by MTT assay
HaCaT [28] = assay: Induction of apoptosis in human HaCaT cells assessed as change in loss of adheshin after irradiation with 9.15 mW/cm'2 light for 10 mins; format: functional, cell-based
HaCaT [29] = assay: Phototoxicity against human HaCaT cells assessed as surviving fraction at 0.3 uM irradiated with 9.15 mW/cm'2 light for 10 mins by MTT assay; format: functional
HaCaT [30] = assay: Phototoxicity against human HaCaT cells assessed as surviving fraction at 0.3 uM irradiated with 9.15 mW/cm'2 light for 5 mins by MTT assay; format: functional
HaCaT [31] = assay: Phototoxicity against human HaCaT cells assessed as surviving fraction at 0.3 uM irradiated with 9.15 mW/cm'2 light for 15 mins by MTT assay; format: functional
HaCaT [32] = assay: Induction of apoptosis in human HaCaT cells assessed as intracellular localization at 0.3 uM with 9.15 mW/cm'2 light for; format: functional, cell-based; settings: TDE = time-dependent effect
HaCaT [33] = assay: Phototoxicity against human HaCaT cells assessed as surviving fraction at 1.2 uM irradiated with 9.15 mW/cm'2 light for 10 mins by MTT assay; format: functional
HeLa [34] = assay: Phototoxicity against human HeLa cells assessed as surviving fraction at 1.2 uM irradiated with 9.15 mW/cm'2 light for 20 mins by MTT assay; format: functional
HeLa [35] = assay: Phototoxicity against human HeLa cells assessed as surviving fraction at 1.2 uM irradiated with 9.15 mW/cm'2 light for 5 mins by MTT assay; format: functional
HeLa [36] = assay: Phototoxicity against human HeLa cells assessed as survival at 1.2 uM irradiated with 9.15 mW/cm'2 light for 10 mins by MTT assay
HeLa [37] = assay: Phototoxicity against human HeLa cells assessed as surviving fraction at 1.2 uM irradiated with 9.15 mW/cm'2 light for 10 mins by MTT assay; format: functional
[38] = Induction of singlet oxygen production at 1 uM after irradiation at 10 mW/cm'2 in presence of 1,3-diphenylisobenzofuran; format: physicochemical
HaCaT [39] = assay: Induction of apoptosis in human HaCaT cells assessed as intracellular localization at 1.2 uM with 9.15 mW/cm'2 light for; format: functional, cell-based; settings: TDE = time-dependent effect
HaCaT [40] = assay: Phototoxicity against human HaCaT cells assessed as surviving fraction at 1.2 uM irradiated with 9.15 mW/cm'2 light for 20 mins by MTT assay; format: functional

SMILES	Activity (HaCaT [1])	Activity (HeLa [2]) [%]	Activity (HeLa [3]) [%]	Activity (HaCaT [4]) [%]	Activity (HaCaT [7]) [%]	Activity (HaCaT [8]) [%]	Activity (HeLa [10]) [%]	Activity (HaCaT [12]) [%]	Activity (HeLa [15]) [%]	Activity (HeLa [17]) [%]	Activity (HaCaT [20]) [%]	Activity (HeLa [25])	other results
COC(=O)CNC(=O)c1ccc(-c2c3nc(c(-c4cccc(OC)c4)c4ccc([nH]4)c(-c4cccc(OC)c4)c4nc(c(-c5cccc(OC)c5)c5ccc2[nH]5)C=C4)C=C3)cc1	Active	106.97	60.42	24.3	109.91	102.19	104.89	97.96	110.38	107.31	94.98		Activity (HeLa [5]): 3.74%; Stability [6]: Stable; Activity (HeLa [9]): 1.13%; Activity (HeLa [11]): 1.32%; Survival (HeLa [13]): 50.96%; Activity (HaCaT [14]): 50.96%; Activity (HaCaT [16]): 82.69%; Activity (HaCaT [18]): tde; Activity (HaCaT [19]): 22.11%
COC(=O)C(CC[S+](C)[O-])NC(=O)c1ccc(-c2c3nc(c(-c4cccc(OC)c4)c4ccc([nH]4)c(-c4cccc(OC)c4)c4nc(c(-c5cccc(OC)c5)c5ccc2[nH]5)C=C4)C=C3)cc1 (configuration not stated)		95.69	16.93	16.9	101.3	103.4	93.5	101.5	92.61	93.26	99.2	tde	Activity (HeLa [21]): 10.93%; Activity (HaCaT [22]): Active; Activity (HaCaT [23]): Active; Activity (HeLa [24]): 56.87%; Activity (HeLa [26]): 14.23%; Survival (HeLa [27]): 53.02%; Activity (HaCaT [28]): Active; Activity (HaCaT [29]): 53.02%; Activity (HaCaT [30]): 76.87%; Activity (HaCaT [31]): 28.2%; Activity (HaCaT [32]): tde
COC(=O)C(CO)NC(=O)c1ccc(-c2c3nc(c(-c4cccc(OC)c4)c4ccc([nH]4)c(-c4cccc(OC)c4)c4nc(c(-c5cccc(OC)c5)c5ccc2[nH]5)C=C4)C=C3)cc1 (configuration not stated)	Active	102.78	67.33	96.98	97.54	102.65	91.48	104.72	100.28	102.58	101.49	tde	Activity (HaCaT [33]): 42.75%; Activity (HeLa [34]): 0%; Activity (HeLa [35]): 8%; Survival (HeLa [36]): 42.75%; Activity (HeLa [37]): 0%; Activity [38]: Active; Activity (HaCaT [39]): tde; Activity (HaCaT [40]): 22.54%
